From patent US20060009425A1, “Oral formulations of paricalcitol” (priority 2004, published 2006)

What was measured:
[1] = test system: iPTH; experiment: Combined Phase 3 studies, iPTH reduction (Examples 11, 12); type: in vivo, human; conditions: for iPTH, Mean Change from Baseline (SE) / iPTH, Mean Percent Change from Baseline (SE): last on-treatment
Description: In this example, three double-blind, placebo-controlled, multicenter studies were conducted to evaluate the safety and efficacy of paricalcitol capsule in CKD stage 3-4 subjects. Major inclusion included eGFR (MDRD formula) 15-60 mL/min/1.73 m^2, iPTH ≧150 pg/mL. A total of 220 subjects across the 3 studies were randomized and received paricalcitol capsule or placebo three times weekly (TIW, N=145) or daily (QD, N=75) for 24 weeks. […] The initial dose was 2 mcg (TIW) or 1 mcg (QD) for baseline iPTH ≦500 pg/mL and 4 mcg (TIW) or 2 mcg (QD) for baseline iPTH >500 pg/mL. Doses were titrated based on serum Ca, P and iPTH results that were measured every 2 weeks, dose increases occurred every 4 weeks.
(§1) In this example, paricalcitol capsules were evaluated in 3 double-blind, placebo-controlled multicenter studies in CKD stage 3-4 subjects with 2° HPT; 2 of these studies were conducted with TIW dosing and 1 was done with QD dosing. Subjects with eGFR (MDRD formula) 15-60 ml/min/1.73 m^2, iPTH ≧150 pg/mL, serum Ca 8.0-10.0 mg/dL and PO4≦5.2 mg/dL were randomized 1:1 and treated with paricalcitol capsule or placebo for 24 weeks. A total of 145 subjects used TIW regimen (paricalcitol: 72; placebo: 73) and 75 subjects (paricalcitol: 35; placebo: 40) used QD regimen. After the initial doses, doses were titrated based on serum Ca, P and iPTH results that were measured every 2 weeks; dose increases occurred once every 4 weeks and decreases every 2 weeks. Dosing administrations are shown below in Table 18.

[2] = test system: biochemical bone activity markers; experiment: Combined Phase 3 studies, biochemical bone activity markers; type: in vivo, human
From the text: Serum bone-specific alkaline phosphate and serum osteocalcin are considered more sensitive bone markers to evaluate degree of bone remodeling than urinary bone marker. […] These subjects received treatment with the oral formulations of the present invention or a placebo. The bone markers examined in these subjects were serum osteocalcin, serum bone-specific alkaline phosphatase, urinary pyridinoline, and deoxypyridinoline. If more than 1 biochemical bone activity marker measurement existed for a subject on a particular day, the higher measurement was considered to be that subject's biochemical bone activity marker measurement for that day. […] The Final Visit measurement was defined as the last biochemical bone activity marker measurement following the first dose of study drug.
The Week 11 Visit measurement was defined as the biochemical bone activity marker measurement on the day closest to the Week 11 scheduled visit, for which the possible measurements to choose from were those collected within 64 and 77 days following the first dose of study drug.
Changes from baseline to Week 11 Visit and to Final Visit in biochemical bone activity markers were compared between oral paricalcitol and placebo using an ANOVA with treatment as the factor on the combined Phase 3 all treated subject population (Table F). Also, the changes from baseline to Week 11 Visit and to Final Visit were compared between oral paricalcitol and placebo using an ANCOVA with baseline as the second factor on the combined Phase 3 all treated subject population (Table G).
as §1

[3] = Phase 3 studies combined, all treated subjects
[4] = Phase 3 studies combined, all treated subjects, listed as Oral Paricalcitol
[5] = Phase 3 studies combined, all treated subjects, listed as oral paricalcitol
[6] = Phase 3 studies, TIW Treatment Regimen

Compound: C[C@H](/C=C/[C@H](C)C(C)(C)O)[C@H]1CC[C@H]2/C(=C/C=C3C[C@@H](O)C[C@H](O)C3)CCC[C@]12C [Paricalcitol, 19-nor-1α,3β,25-trihydroxy-9,10-secoergosta-5(Z); 7(E),22(E)-triene]
- 30% mean iPTH reduction by ([1]; 3 Phase 3 studies combined): ≤ 9 Week
- efficacy in PTH suppression ([1]; 24-week pivotal Phase 3 studies, CKD Stage 3 and 4 with 2° HPT): > 90%
- subjects with 2 consecutive 30% decreases in iPTH ([1]; 92/101, 3 Phase 3 studies combined): 91%
- 2 consecutive 30% iPTH reduction from baseline, subjects n (%) ([1]; N = 101, 3 Phase 3 studies combined): 92 (91%)
- iPTH, Mean Last On-Treatment Value ([1]; QD Regimen, N = 35): 128 pg/mL
- iPTH, Mean Change from Baseline (SE) ([1]; QD Regimen): −131 (16.7) pg/mL
- iPTH, Mean Percent Change from Baseline (SE) ([1]; QD Regimen): −50% (5.0)
- 2 consecutive 30% iPTH reduction from baseline ([1]; QD regimen): 91%
- 30% mean iPTH reduction by ([1]; QD regimen): ≤ 7 Week
- 2 consecutive 30% iPTH reduction from baseline ([1]; QD regimen, listed as paricalcitol): 91%
- iPTH, Mean Last On-Treatment Value ([1]; TIW Regimen, N = 69): 179 pg/mL
- iPTH, Mean Change from Baseline (SE) ([1]; TIW Regimen): −90 (10.7) pg/mL
- iPTH, Mean Percent Change from Baseline (SE) ([1]; TIW Regimen): −33% (3.6)
- 2 consecutive 30% iPTH reduction from baseline ([1]; TIW regimen): 91%
- 30% mean iPTH reduction by ([1]; TIW regimen): ≤ 9 Week
- 2 consecutive 30% iPTH reduction from baseline ([1]; TIW regimen, listed as paricalcitol): 91%
- Serum Osteocalcin, Change from Baseline (SE) to Week 11 [2, 3]: −3.94 (2.431) ng/mL
- Urinary Deoxypyridinoline, Change from Baseline (SE) to Final [2, 3]: −0.0058 (0.00514) nmol/mg Creat
- Urinary Pyridinoline, Change from Baseline (SE) to Week 11 [2, 3]: −5.21 (1.938) nmol/mmol Creat
- Serum Bone-Specific Alkaline Phosphatase, Change from Baseline (SE) to Final [2, 4]: −7.890 (0.7596) mcg/L
- Serum Bone-Specific Alkaline Phosphatase, Change from Baseline (SE) to Week 11 [2, 4]: −5.024 (0.6279) mcg/L
- Serum Osteocalcin, Change from Baseline (SE) to Final [2, 4]: −21.64 (2.706) ng/mL
- Urinary Deoxypyridinoline, Change from Baseline (SE) to Week 11 [2, 4]: −0.0155 (0.00433) nmol/mg Creat
- Urinary Pyridinoline, Change from Baseline (SE) to Final [2, 4]: −3.61 (1.896) nmol/mmol Creat
- Serum Bone-Specific Alkaline Phosphatase, Change from Baseline (SE) to Final [2, 5]: -7.89 µg/L
- Serum Bone-Specific Alkaline Phosphatase, Change from Baseline (SE) to Week 11 [2, 5]: -5.024 µg/L
- Serum Osteocalcin, Change from Baseline (SE) to Final [2, 5]: -21.64 ng/mL
- Urinary Deoxypyridinoline, Change from Baseline (SE) to Week 11 [2, 5]: −0.0155 nmol/mg Creat
- Urinary Pyridinoline, Change from Baseline (SE) to Final [2, 5]: −3.61 nmol/mmol Creat
- Serum Bone-Specific Alkaline Phosphatase, Change from Baseline (SE) to Final [2, 6]: −8.043 (0.9033) mcg/L
- Serum Bone-Specific Alkaline Phosphatase, Change from Baseline (SE) to Week 11 [2, 6]: −4.869 (0.7835) mcg/L
- Serum Osteocalcin, Change from Baseline (SE) to Final [2, 6]: −18.96 (2.944) ng/mL
- Serum Osteocalcin, Change from Baseline (SE) to Week 11 [2, 6]: −5.53 (2.720) ng/mL
- Urinary Deoxypyridinoline, Change from Baseline (SE) to Final [2, 6]: −0.0130 (0.00357) nmol/mg Creat
- Urinary Deoxypyridinoline, Change from Baseline (SE) to Week 11 [2, 6]: −0.0129 (0.00426) nmol/mg Creat
- Urinary Pyridinoline, Change from Baseline (SE) to Final [2, 6]: −5.47 (1.789) nmol/mmol Creat
- Urinary Pyridinoline, Change from Baseline (SE) to Week 11 [2, 6]: −5.19 (2.213) nmol/mmol Creat
- Bone Spec. Alk Phos, Mean Change from Baseline ([2]; QD Regimen, N = 33 (Table 20)): −7.6 (1.40) mcg/L
- Serum Osteocalcin, Mean Change from Baseline ([2]; QD Regimen, N = 33 (Table 20)): −27.1 (5.54) ng/mL
- Serum Osteocalcin, Mean Change from Baseline ([2]; TIW Regimen, N = 67 (Table 20)): −19.0 (2.94) ng/mL
- Bone Spec. Alk Phos, Mean Change from Baseline ([2]; TIW Regimen, N = 68 (Table 20)): −8.0 (0.90) mcg/L
